Test systems include HOP-62 NSCLC; ACHN renal; SF-295 CNS; COLO 205 colon; OVCAR-4 ovarian; LOX IMVI melanoma; MOLT-4 leukemia; DU-145 prostate; CAKI-1 renal; MDA-N.
Common to all, as to test: NCI tumour cell line growth inhibition, 48 h

The structures appear in SMILES notation.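 Five compound concentrations were applied to cells in 96-well plates for 48 hours; endpoints were derived by simple linear interpolation of the resulting dose-response curve. GI50 is the concentration that inhibits growth by half. TGI: concentration producing complete growth inhibition.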

For `CO/N=C(\C)COc1ccc2c(=O)c(-c3ccccc3)coc2c1`, the GI50 is 17.8 µM in the assay on HOP-62 NSCLC; 19.2 µM in the assay on ACHN renal; 31.9 µM with SF-295 CNS; 11.2 µM in the assay with COLO 205 colon; 40.4 µM in the assay on OVCAR-4 ovarian; 42.5 µM in the assay with LOX IMVI melanoma. Besides, the GI50 is above 100 µM in the assay with MOLT-4 leukemia and 23.1 µM in the assay on DU-145 prostate. Besides, the TGI was 46.6 µM in the assay with HOP-62 NSCLC; 38.8 µM with ACHN renal; 65.2 µM with SF-295 CNS; 32.4 µM in the assay with COLO 205 colon; above 100 µM in the assay on OVCAR-4 ovarian; above 100 µM with LOX IMVI melanoma. In addition, the TGI in the assay on MOLT-4 leukemia is above 100 µM; in the assay with DU-145 prostate, 52.7 µM.
Turning to `CCOC(=O)C(O)(NC(=O)c1ccccc1F)C(F)(F)F` (stereo not drawn), the TGI with HOP-62 NSCLC, in the assay on ACHN renal, in the assay with SF-295 CNS, in the assay with COLO 205 colon, with OVCAR-4 ovarian and with LOX IMVI melanoma was above 100 µM each time. Also, the TGI in the assay on CAKI-1 renal, in the assay with MOLT-4 leukemia, in the assay on MDA-N and with DU-145 prostate was above 100 µM throughout.
In the case of `N#Cc1c(N)sc2c1-c1ccccc1OC2`, the TGI with HOP-62 NSCLC is above 100 µM; in the assay on ACHN renal, above 100 µM; in the assay with COLO 205 colon, above 100 µM; in the assay on OVCAR-4 ovarian, 88 µM; in the assay on LOX IMVI melanoma it was above 100 µM; in the assay with MOLT-4 leukemia, above 100 µM. In addition, the TGI in the assay on MDA-N was 67.1 µM; with DU-145 prostate, above 100 µM.
For the compound `COc1cc(C2C(C(=O)O)=C(COC(C)=O)Oc3cc4c(cc32)OCO4)cc(OC)c1OC` (stereo not drawn), the TGI in the assay on HOP-62 NSCLC, in the assay on ACHN renal, in the assay on SF-295 CNS, in the assay on COLO 205 colon, in the assay with OVCAR-4 ovarian and in the assay with LOX IMVI melanoma was above 100 µM in each case. In addition, the TGI in the assay on CAKI-1 renal and in the assay on MOLT-4 leukemia was above 100 µM throughout.
Regarding `CCc1ccc2nc(-c3ccc(O)cc3)sc2c1`, the TGI with ACHN renal stood at 38.2 µM; with SF-295 CNS it was 30.6 µM; with COLO 205 colon it was 28.6 µM; in the assay with LOX IMVI melanoma, 33.6 µM; in the assay with CAKI-1 renal, 26.4 µM; in the assay on MOLT-4 leukemia, 40.8 µM. For the same compound, the TGI in the assay on MDA-N came to 36 µM; with DU-145 prostate, 28.9 µM.
Consider `CN(C)c1ccc(C(Cc2ccc3ccccc3n2)Cc2ccc3ccccc3n2)cc1`, for which the GI50 was 5.84 µM with HOP-62 NSCLC, 3.26 µM with SF-295 CNS, 2.2 µM with CAKI-1 renal and above 100 µM with DU-145 prostate. In addition, the TGI in the assay on HOP-62 NSCLC, with SF-295 CNS, in the assay with CAKI-1 renal and in the assay on DU-145 prostate was above 100 µM in each case.
